{"source": "paper PMC9977050", "about": "“Thymoquinone effect on the Dictyostelium discoideum model correlates with functional roles for glutathione S-transferases in eukaryotic proliferation, chemotaxis, and development” (PLOS ONE, 2023)", "test_in_all_cases": "CDNB conjugation assay, absorbance at […] nm", "format_in_all_cases": "biochemical", "key": {"rDdGSTA2 [1]": {"target": "T1, rDdGSTA2 (Dictyostelium discoideum, UniProt Q556G3)", "T1 construct": "gene gsta2-1; purified recombinant", "T1 sequence (Q556G3 2-198)": "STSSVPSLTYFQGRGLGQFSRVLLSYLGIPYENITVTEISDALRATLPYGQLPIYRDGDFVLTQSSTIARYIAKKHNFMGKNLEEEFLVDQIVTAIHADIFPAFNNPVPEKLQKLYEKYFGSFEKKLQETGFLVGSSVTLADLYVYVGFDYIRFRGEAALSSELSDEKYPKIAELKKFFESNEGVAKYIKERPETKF", "settings": "GSH and CDNB as substrates, 25°C; mode not determined; authors caution that thymoquinone may also bind GSH, CDNB or product"}, "rDdGSTA3": {"target": "T2, rDdGSTA3 (Dictyostelium discoideum, UniProt Q54VI4)", "T2 construct": "gene gsta3; purified recombinant", "T2 sequence (Q54VI4 2-204)": "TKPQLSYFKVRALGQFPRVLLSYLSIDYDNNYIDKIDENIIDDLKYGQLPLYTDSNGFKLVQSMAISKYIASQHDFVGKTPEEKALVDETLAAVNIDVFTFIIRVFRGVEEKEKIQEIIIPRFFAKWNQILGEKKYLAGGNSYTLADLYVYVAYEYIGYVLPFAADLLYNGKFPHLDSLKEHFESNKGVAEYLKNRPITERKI", "settings": "with GSH, 25°C"}, "rDdGSTA2 [2]": {"target": "T1, rDdGSTA2", "settings": "with GSH, 25°C"}}, "data": [{"smiles": "CC1=CC(=O)C(C(C)C)=CC1=O", "note": "[thymoquinone, 2-isopropyl-5-methylbenzo-1,4-quinone]", "values": [{"measurement": "% reduction of GS-DNB conjugate at 0.75 μM", "setting": "rDdGSTA2 [1]", "value": 61, "unit": "%"}]}, {"smiles": "O=[N+]([O-])c1ccc(Cl)c([N+](=O)[O-])c1", "note": "[CDNB, 1-chloro-2,4-dinitrobenzene]", "values": [{"measurement": "CDNB conjugation assay, absorbance at 340 nm", "setting": "rDdGSTA3", "value": "CDNB activity assays of purified, recombinant GSTs (rDdGSTA2, rDdGSTA3) were conducted"}, {"measurement": "CDNB conjugation assay, absorbance at 340 nm", "setting": "rDdGSTA2 [2]", "value": "CDNB activity assays of purified, recombinant GSTs (rDdGSTA2, rDdGSTA3) were conducted"}]}]}
